Inhibition in vivo, inhibition and IC50 data for 21 molecules are collected here from patent US8492582B2, “N-acyl anthranilic acid derivative or salt thereof” (Toyama Chemical Co., Ltd., priority 2009, dated 2013).

In experiment [1] the test system is bleomycin-induced lung fibrosis (lung collagen amount). The experiment is described as follows: Mouse bleomycin-induced lung fibrosis. It counts as in vivo, mice C57BL/6N. The following applies: po, 672 h, read-out: lung collagen amount low compared with that of the control group. As to the method: The test was conducted using 8- to 10.5-week-old male mice C57BL/6N (Charles River Laboratories Japan, Inc.). Bleomycin (Nippon Kayaku Co., Ltd.) was dissolved in physiological saline in a concentration of 1.0 or 1.5 mg/mL, and 2 μL/g thereof was intranasally administered to each mouse to evoke lung fibrosis. A test compound was dissolved or suspended in a 10% aqueous solution of polyoxyethylene castor oil (trade name: Cremophor EL) or in water and orally administered in an amount of 10 mg/kg twice a day from the 14th to the 28th day from the evocation. In a control group, a 10% aqueous solution of polyoxyethylene castor oil or water was administered in the same manner. The lung was extracted from each mouse on the 28th day from the evocation, and collagen was quantitatively measured. The extracted lung was homogenized in a 0.5 mol/L aqueous solution of acetic acid containing a protease inhibitor cocktail (Complete, EDTA-free, Roche Diagnostics) in an amount of one tablet/50 mL, and water-soluble collagen was extracted in the presence of 10 mg/mL pepsin (Sigma) overnight. The amount of collagen was measured using a kit (Sircol Soluble Collagen assay kit, Biocolor).
The inhibition rate was determined by the following expression: Inhibition rate (%)=[1−(lung collagen amount in test compound administration group)/(lung collagen amount in control group)]×100

Experiment [2] relates to type I collagen α1 chain mRNA in WI-38 cells. Put plainly: Type I collagen α1 chain mRNA expression inhibition test. It counts as cell-based. The following applies: Homo sapiens, read-out: Inhibition rate (%) at 10 μmol/L. As to the method: Human embryonic lung fibroblast cell line WI-38 cells were suspended in a Dulbecco's modified Eagle's medium containing 10% fetal calf serum, and 7.5×10^4 cells were inoculated on a 12-well plate and cultured for 3 days, or 1.5×10^5 cells were inoculated and cultured for 2 days. After the growth of the cells to a subconfluent state, the culture medium was changed to a Dulbecco's modified Eagle's medium containing 0.4% fetal calf serum and 50 μg/mL ascorbic acid, and the cells were further cultured for 24 hours. Then, a test compound was added thereto, and, one hour later, TGF-β1 was added at a final concentration of 1 ng/mL. Twenty-four hours after the addition, the total RNA was extracted from the cells using an RNA extraction kit (SV Total RNA Isolation System, Promega), and cDNA was synthesized using a reverse transcriptase (ReverTra Ace, TOYOBO). The expression level of the type I collagen al chain mRNA was analyzed with a real-time PCR instrument (ABI PRISM 7700 Sequence Detection System, Applied Biosystems) by a real-time PCR method using a premix reagent of real-time PCR (SYBR Premix Ex Taq or SYBR Premix Ex Taq II (Perfect Real Time), TaKaRa). A PCR reaction was conducted with diluted cDNA as a template, using primers specific for a type I collagen α1 chain gene or a GAPDH gene as an internal standard, and the reaction product was measured. The PCR reaction was conducted by incubation at 95° C. for 10 seconds and 45 cycles of denaturation at 95° C. for 5 seconds and annealing/extension at 60° C. for 30 seconds. The expression level of the type I collagen α1 chain mRNA was corrected with GAPDH and was expressed as a relative value when the expression level obtained in the absence of the test compound was defined as 100%.

For another experiment, the target named is T1, CYP2C9 (Homo sapiens, UniProt P11712).
T1 construct: Pooled human liver microsome was used, and tolbutamide was used as a substrate; from tissue; host or cells: pooled human liver microsomes
Put plainly: Hepatic drug-metabolizing enzyme inhibitory activity in humans (CYP2C9). It counts as in vitro ADME. Particulars: pooled human liver microsome, tolbutamide 200 μmol/L, 37° C., 30 minutes; 80a as free base; read-out: IC50 (CYP2C9, tolbutamide metabolite). As to the method:
As test compounds, the compounds of Examples 80a, 83a, 108a, 117a, 123a, 128a, 139a, 142a, and 143a were used. Note that the compound of Example 80a was used in the form of free base.
Pooled human liver microsome was used, and tolbutamide was used as a substrate. The reaction was performed in a phosphate buffer (100 mmol/L, pH 7.4), and the final concentrations in the reaction system were adjusted to 0.5 mg/mL of human liver microsome protein, 200 μmol/L of the substrate, 1.55 mmol/L of oxidized nicotinamide adenine dinucleotide phosphate (NADP+), 3.3 mmol/L of glucose-6-phosphate, 3.3 mmol/L of magnesium chloride, and 0.4 Units/mL of glucose-6-phosphate dehydrogenase (G6PDH). The final concentration of each compound in the reaction solution was adjusted to 0.08 to 50 μg/mL. These reaction solutions were each subjected to reaction at 37° C. for 30 minutes. The reaction was terminated with an equal amount of acetonitrile. After centrifugation, the concentration of a tolbutamide metabolite in the supernatant was quantitatively measured by LC-MS/MS. The inhibitory activity was determined as IC50. As a positive control, sulfaphenazole was used.
For orientation: Liver microsomes are a subcellular fraction often used to study metabolism.

[3] abbreviates: orally 10 mg/kg twice a day, 14th to 28th day, lung on 28th day, 23a, 1b, 7c as sodium salts, 122a, 143a as hydrochloric acid salts.
Where [4] appears, read: 10 μmol/L test compound, WI-38 cells, TGF-β1 1 ng/mL, 24 hours, Table 4a.

Structures can show the parent of a compound that is named as a salt. Where two headings read alike, the source gives them in different places. Where only a bound is given, the exact number is not on record here.

As a reminder, the IC50 is the midpoint of a concentration-inhibition curve.

T1 sequence (P11712 whole entry): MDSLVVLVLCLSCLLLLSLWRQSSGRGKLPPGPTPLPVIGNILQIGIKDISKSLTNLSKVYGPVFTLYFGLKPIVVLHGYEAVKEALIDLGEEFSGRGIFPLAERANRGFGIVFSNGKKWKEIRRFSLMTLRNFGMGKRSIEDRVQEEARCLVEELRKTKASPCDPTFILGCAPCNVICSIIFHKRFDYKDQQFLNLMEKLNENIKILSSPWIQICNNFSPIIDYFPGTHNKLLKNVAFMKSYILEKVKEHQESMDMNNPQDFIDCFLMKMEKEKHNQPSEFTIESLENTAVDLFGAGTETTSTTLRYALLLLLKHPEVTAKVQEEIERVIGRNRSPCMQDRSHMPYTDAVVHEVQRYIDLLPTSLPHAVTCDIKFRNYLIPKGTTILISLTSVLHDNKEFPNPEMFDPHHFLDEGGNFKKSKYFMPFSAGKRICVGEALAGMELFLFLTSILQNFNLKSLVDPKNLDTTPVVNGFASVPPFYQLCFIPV

For the molecule `O=C(Nc1cc(-c2ccoc2)ccc1C(=O)O)c1cncc(-c2ccccc2)c1` [57b, Sodium 4-(furan-3-yl)-2-(5-phenylpyridine-3-carboxamido)benzoate], the inhibition in vivo at 10 mg/kg in experiment [1] was no less than 30%. The inhibition at 10 µM in experiment [2] (WI-38, 24 h) turned out to be 84%.
Turning to `O=C(Nc1cc(-c2ccccc2)ccc1C(=O)O)c1cc(-c2cccnc2)ccc1O` [Example 23a, 2-(2-hydroxy-5-(pyridin-3-yl)benzamido)-4-phenylbenzoic acid], the inhibition in vivo at 10 mg/kg in experiment [1] (setting [3]) is no less than 30%. The inhibition at 10 µM in experiment [2] (setting [4]) turned out to be 91%.
With `O=C(Nc1cc(-c2ccccc2)ccc1C(=O)O)c1cc(N2CCOCC2)ccc1O` [Example 83a, 2-(2-Hydroxy-5-(morpholin-4-yl)benzamido)-4-phenylbenzoic acid hydrochloride], the IC50 at CYP2C9 was greater than 110 µM. In addition, the inhibition in vivo at 10 mg/kg in experiment [1] (setting [3]) was no less than 30%. Moreover, in experiment [2] (setting [4]), the inhibition at 10 µM is 88%.
For the molecule `O=C(Nc1cc(-c2ccccc2)ccc1C(=O)O)c1ccc(N2CCCCC2)cc1O` [Example 100a, 2-(2-hydroxy-4-(piperidin-1-yl)benzamido)-4-phenylbenzoic acid], the inhibition at 10 µM in experiment [2] (setting [4]) was 99%.
On the same count and under the same terms, as for `CCN(CC)CCN(C)c1ccc(O)c(C(=O)Nc2cc(-c3ccccc3)ccc2C(=O)O)c1` [Example 102a, 2-(5-((2-(Diethylamino)ethyl)(methyl)amino)-2-hydroxybenzamido)-4-phenylbenzoic acid], the figure is 89%; as for `CCN(CCN(C)C)c1ccc(O)c(C(=O)Nc2cc(-c3ccccc3)ccc2C(=O)O)c1` [Example 104a, 2-(5-((2-(Dimethylamino)ethyl)(ethyl)amino)-2-hydroxybenzamido)-4-phenylbenzoic acid], 92%.
Consider `CN1CCC(Oc2ccc(O)c(C(=O)Nc3cc(-c4ccccc4)ccc3C(=O)O)c2)CC1` [Example 108a, 2-(2-hydroxy-5-((1-methylpiperidin-4-yl)oxy)benzamido)-4-phenylbenzoic acid hydrochloride], for which the IC50 on CYP2C9 is greater than 112 µM. Moreover, in experiment [1], the inhibition in vivo at 10 mg/kg is no less than 30%. The inhibition at 10 µM in experiment [2] (setting [4]) came to 94%.
On to `CN(C)CCOc1ccc(O)c(C(=O)Nc2cc(-c3ccccc3)ccc2C(=O)O)c1` [Example 109a, 2-(5-(2-(Dimethylamino)ethoxy)-2-hydroxybenzamido)-4-phenylbenzoic acid hydrochloride], for which the inhibition at 10 µM in experiment [2] (setting [4]) was determined as 91%.
Still for that read-out and setting: as for `O=C(Nc1cc(-c2ccccc2)ccc1C(=O)O)c1cc(Oc2ccccc2)ccc1O` [Example 115a, 2-(2-hydroxy-5-phenoxybenzamido)-4-phenylbenzoic acid], the figure is 98%.
On to `CN1CCN(CCc2ccc(O)c(C(=O)Nc3cc(-c4ccccc4)ccc3C(=O)O)c2)CC1` [Example 117a, 2-(2-hydroxy-5-(2-(4-methylpiperazin-1-yl)ethyl)benzamido)-4-phenylbenzoic acid dimethanesulfonate], for which the 50% inhibitory concentration (IC50) at CYP2C9 was greater than 109 µM. The inhibition at 10 µM in experiment [2] (setting [4]) was determined as 90%.
`CCN1CCN(Cc2ccc(O)c(C(=O)Nc3cc(-c4ccccc4)ccc3C(=O)O)c2)CC1` [Example 123a, 2-(5-((4-Ethylpiperazin-1-yl)methyl)-2-hydroxybenzamido)-4-phenylbenzoic acid dimethanesulfonate]: the IC50 at CYP2C9 is greater than 76.7 µM.
For the molecule `CNC1CCN(Cc2ccc(O)c(C(=O)Nc3cc(-c4ccccc4)ccc3C(=O)O)c2)CC1` [Example 126a, 2-(2-Hydroxy-5-((4-(methylamino)piperidin-1-yl)methyl)benzamido)-4-phenylbenzoic acid dimethanesulfonate], the inhibition at 10 µM in experiment [2] (setting [4]) was determined as 79%.
`CN(C)C1CCN(Cc2ccc(O)c(C(=O)Nc3cc(-c4ccccc4)ccc3C(=O)O)c2)CC1` [Example 128a, 2-(5-((4-(Dimethylamino)piperidin-1-yl)methyl)-2-hydroxybenzamido)-4-phenylbenzoic acid dimethanesulfonate]: on CYP2C9, the 50% inhibitory concentration (IC50) is greater than 106 µM.
Turning to `CN(C)CCN(C)Cc1ccc(O)c(C(=O)Nc2cc(-c3ccccc3)ccc2C(=O)O)c1` [Example 134a, 2-(5-(((2-(dimethylamino)ethyl)(methyl)amino)methyl)-2-hydroxybenzamido)-4-phenylbenzoic acid], the inhibition at 10 µM in experiment [2] (setting [4]) came to 90%.
On the same count and under the same terms, in the case of `CN1CCN(CCCOc2ccc(O)c(C(=O)Nc3cc(-c4ccccc4)ccc3C(=O)O)c2)CC1` [Example 141a, 2-(2-hydroxy-5-(3-(4-methylpiperazin-1-yl)propoxy)benzamido)-4-phenylbenzoic acid dimethanesulfonate] it was 92%.
Take `CN1CCN(CCOc2ccc(O)c(C(=O)Nc3cc(-c4ccccc4)ccc3C(=O)O)c2)CC1` [Example 142a, 2-(2-hydroxy-5-(2-(4-methylpiperazin-1-yl)ethoxy)benzamido)-4-phenylbenzoic acid dimethanesulfonate]: the IC50 on CYP2C9 was greater than 105 µM. Also, the inhibition at 10 µM in experiment [2] (setting [4]) was 90%.
In the case of `CCN1CCN(CCOc2ccc(O)c(C(=O)Nc3cc(-c4ccccc4)ccc3C(=O)O)c2)CC1` [Example 143a, 2-(5-(2-(4-ethylpiperazin-1-yl)ethoxy)-2-hydroxybenzamido)-4-phenylbenzoic acid dimethanesulfonate], the IC50 at CYP2C9 was greater than 102 µM. The inhibition in vivo at 10 mg/kg in experiment [1] (setting [3]) is no less than 30%. Moreover, the inhibition at 10 µM in experiment [2] (setting [4]) was 89%.
As for `O=C(Nc1cc(-c2ccccc2)ccc1C(=O)O)c1cc(OCCN2CCNCC2)ccc1O` [Example 144a, 2-(2-hydroxy-5-(2-(piperazin-1-yl)ethoxy)benzamido)-4-phenylbenzoic acid dimethanesulfonate], the inhibition at 10 µM in experiment [2] (setting [4]) was 96%.
On the same count and under the same terms, as for `Cc1ccccc1-c1ccc(C(=O)O)c(NC(=O)c2cc(N3CCCCC3)ccc2O)c1` [Example 148a, 2-(2-hydroxy-5-(piperidin-1-yl)benzamido)-4-(2-methylphenyl)benzoic acid], the figure is 93%; as for `Cc1cccc(-c2ccc(C(=O)O)c(NC(=O)c3cc(N4CCCCC4)ccc3O)c2)c1` [Example 149a, 2-(2-Hydroxy-5-(piperidin-1-yl)benzamido)-4-(3-methylphenyl)benzoic acid], 97%; as for `Cc1ccc(-c2ccc(C(=O)O)c(NC(=O)c3cc(N4CCCCC4)ccc3O)c2)cc1` [Example 150a, 2-(2-Hydroxy-5-(piperidin-1-yl)benzamido)-4-(4-methylphenyl)benzoic acid], 93%.
